Assay [1] concerns BJ. Kind of assay: cytotoxicity toward BJ-TERT fibroblasts, dose response, cell-based, RAS-independent, luminescence (AID 1933). Particulars: Homo sapiens. Type of assay: functional.
Assay [2] relates to BJ. Put plainly: cells. Type of assay: functional, cell-based. The following applies: Homo sapiens.
The subject of assay [3] is BJ. Put plainly: cytotoxicity toward BJ-TERT-LT-ST fibroblasts, dose response, cell-based, RAS-independent, luminescence (AID 1935).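 Further: BJ fibroblasts immortalized with TERT plus LT and ST oncogenes.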 Type of assay: functional. Particulars: Homo sapiens.
Assay [4] can be described thus: cytotoxicity toward DRD oncogenic fibroblasts, dose response, cell-based, non-viral oncogenic, luminescence (AID 1934). Particulars: Homo sapiens. The class given is functional.
Assay [5] in a line: cells. Type of assay: functional, cell-based.
The nature of assay [6]: cells. Type of assay: functional, cell-based. The source holds these as a separate data set.
A short description of assay [7]: inhibitors of firefly luciferase expression or activity, dose response, H4 neuroglioma cells, luminescence (AID 1990). Type of assay: functional, cell-based.
The nature of assay [8]: Luminescence Cell-Based Dose Response HTS to Identify Inhibitors of 5'UTR Stem-Loop Driven Prion Protein mRNA Translation in H4 Neuroglioblastoma Cells. [Related pubchem assays: 1827 (Project Summary), 1813 (Primary HTS)]. Type of assay: functional.
Assay [9] can be described thus: inhibitors of SNCA 5'UTR-driven reporter translation, confirmation, H4 neuroglioma cells, luminescence (AID 1988). Type of assay: functional, cell-based.
Assay [10] has as its target T1, Corticotropin-releasing factor receptor 2/Corticotropin-releasing factor-binding protein (Homo sapiens, UniProt P24387+Q13324).
T1 sequence (Q13324 whole entry): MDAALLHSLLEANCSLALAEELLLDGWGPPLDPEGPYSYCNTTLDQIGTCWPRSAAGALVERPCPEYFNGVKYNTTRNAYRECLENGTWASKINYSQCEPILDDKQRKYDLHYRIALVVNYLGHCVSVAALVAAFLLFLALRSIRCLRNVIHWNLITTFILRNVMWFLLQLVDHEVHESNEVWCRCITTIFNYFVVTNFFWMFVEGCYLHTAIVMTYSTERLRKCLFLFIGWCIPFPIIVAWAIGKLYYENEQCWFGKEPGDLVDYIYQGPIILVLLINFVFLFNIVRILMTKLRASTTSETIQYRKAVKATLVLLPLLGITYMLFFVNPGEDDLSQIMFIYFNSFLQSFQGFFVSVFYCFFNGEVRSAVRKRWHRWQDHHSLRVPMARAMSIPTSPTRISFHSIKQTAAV
T1 sequence (P24387 whole entry): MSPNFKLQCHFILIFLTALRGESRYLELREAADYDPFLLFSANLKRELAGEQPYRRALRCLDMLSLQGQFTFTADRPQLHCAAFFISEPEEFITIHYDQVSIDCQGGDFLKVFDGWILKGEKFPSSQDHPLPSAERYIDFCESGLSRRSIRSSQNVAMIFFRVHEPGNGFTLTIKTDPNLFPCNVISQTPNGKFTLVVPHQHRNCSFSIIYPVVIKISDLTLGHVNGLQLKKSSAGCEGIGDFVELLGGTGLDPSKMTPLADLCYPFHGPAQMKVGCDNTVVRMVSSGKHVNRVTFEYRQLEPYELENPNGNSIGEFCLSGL
Kind of assay: Dose Response confirmation of uHTS hits for small molecule antagonists of the CRF-binding protein and CRF-R2 receptor complex. Type of assay: functional. Particulars: read-out: IC50_Mean.

Assay [11] deals with T1, Corticotropin-releasing factor receptor 2/Corticotropin-releasing factor-binding protein. Put plainly: activators of CRF receptor 2 with binding protein – uHTS hits, confirmation (AID 602473). The class given is functional. The following applies: read-out: EC50_Mean.
For another assay, the system named is INS1. Kind of assay: beta cell apoptosis inhibitors, cytokine rescue, dose response, luminescence, retest (AID 449756).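 Further: cell death triggered by IL-1 beta plus TNF-alpha plus IFN-gamma mixture; protective hits raise ATP signal compared with cytokine alone wells.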 The class given is functional, cell-based. The following applies: Rattus norvegicus.

Calls of active or inactive are those of the source. For most assays here, no stated cut-off is given here; in the data, actives have a measured EC50 and inactives only a lower limit. Bounds are passed on as bounds.

With `CSc1nsc(SCc2ccc(Cl)cc2)n1`, the EC50 in the assay with BJ [1] was > 150 µM (not active); in the assay with BJ [2], > 150 µM (not active); in the assay with BJ [3], > 150 µM (inconclusive); in [4] it was > 150 µM (not active).
For `CCOc1ccc(N2CC(C(=O)Nc3ccccc3C(=O)NC3CC3)CC2=O)cc1` (stereo unspecified), the EC50 in the assay “cells [5]” and in “cells [6]” was > 350 µM (not active) each time.
Regarding `Cc1onc(-c2ccccc2)c1C(=O)Nc1ccc(S(=O)(=O)N2CCCC2)cc1`, the EC50 in “cells [5]” and in “cells [6]” was > 350 µM (not active) each time.
For `Cc1cc(NC(=O)CSc2nnc(C3CC3)n2N)no1`, the EC50 in assay [7], in assay [8] and in assay [9] was > 120 µM (not active) throughout.
`CC(C)Sc1nc(N)c2c3c(sc2n1)CN(C)CC3`: the EC50 in “cells [5]” and in “cells [6]” was > 350 µM (not active) in each case.
Take `COc1cc(NC(=O)CSc2nc3ccccc3n2-c2ccccc2)c(C)cc1[N+](=O)[O-]`: the EC50 with BJ [1] is > 150 µM (not active); in the assay on BJ [2] it was > 150 µM (not active); in the assay with BJ [3], > 150 µM (inconclusive); in assay [4], > 150 µM (not active); in assay [11] it was > 53 µM (inactive). The IC50 in [10] was > 47.1 µM (inactive).
With `COC(=O)c1cc(S(=O)(=O)NCc2ccccc2OC)cn1C`, the EC50 in “cells [5]” and in the assay “cells [6]” was > 350 µM (not active) each time.
As for `CCOc1ccc(CCNC(=O)COC(=O)Cn2nc(C)c([N+](=O)[O-])c2C)cc1OCC`, the EC50 in “cells [5]” and in the assay “cells [6]” was > 350 µM (not active) throughout.
For the molecule `COc1ccc(Nc2nc(-c3sc(C)nc3C)cs2)c(OC)c1`, the EC50 in the assay on BJ [1] was 62.3 µM (active); in the assay on BJ [2] it was 4.21 µM (inconclusive); with BJ [3], > 150 µM (inconclusive); in assay [4], 4.81 µM (active).
Take `O=C1NC(=O)C(=CNc2ccccc2[N+](=O)[O-])C(=O)N1`: the results for the EC50 in assay [7], in assay [8] and in assay [9] were > 120 µM (not active), 20.7 µM (active) and > 120 µM (not active), respectively.
Turning to `Cc1ccc(Cn2c(SCc3cccnc3)nc3c2c(=O)n(C)c(=O)n3C)cc1`, the EC50 in assay [7], in assay [8] and in [9] was > 120 µM (not active) throughout.
For `COc1ccc(-c2csc(Cc3nnc(N4CCOCC4)n3-c3ccccc3)n2)cc1OC`, the EC50 was > 120 µM (not active) in assay [7], > 120 µM (not active) in assay [8] and 19.4 µM (active) in assay [9].
Consider `Cc1ccc(-n2nc3c(=O)n(CCCC(=O)NCc4ccco4)nc(C)c3c2C)cc1`, for which the results for the EC50 in assay [7], in assay [8] and in assay [9] were 17.1 µM (active), 43 µM (active) and > 120 µM (not active), respectively.
For `COc1cc(-c2cc3nc4ccccc4n3c(N)c2C#N)cc(OC)c1OC` the same measures were 17.2 µM (active), 16.4 µM (active) and > 120 µM (not active).
As to `O=C(N/N=C/c1ccccc1O)C1CC(=O)N(c2ccc(Cl)cc2)C1` (stereo unspecified), the EC50 is 15.2 µM (active) in [7], 24.1 µM (active) in assay [8] and 7.99 µM (active) in [9]. Further, the AC50 (as a rule, the midpoint of the concentration-response curve, whichever way the signal moves) in the assay with INS1 was 3.69 µM (active).

The record behind these values is ChEMBL document CHEMBL1201862, “PubChem BioAssay data set” (2004).
